Assay results as given in US10076549B2, “Gastric health supplement and methods thereof” (SmartPak Equine LLC, priority 2012, dated 2018).

Tests used:
[1] = tested on: nonglandular gastric ulcers; test: 42-day 2-period crossover equine health study: gastroscopic nonglandular gastric ulcer number (NGN) and severity (NGS) scores; assay type: in vivo, horse; conditions: by Day 14
Experimental: Eight healthy Thoroughbred and Thoroughbred-cross horses from the Equine Health Studies Program (EHSP) herd were used in this study. The study was performed as a 42-day 2-period crossover using a treatment group (n=8) and an untreated control (n=8).
All horses were stall-confined and fed mixed grass hay and sweet feed (OMOLENE® 100; Gray Summit, Mo.). Horses were assigned to the two treatment groups stratified by gastric ulcer score recorded on day 1 of period 1. Treated horses were fed with a Supplement composition of Example 1 above (40 g, twice daily) added to the sweet feed and control horses received no feed supplement.
Prior to beginning the study, all horses underwent physical examination. From Day 1 to Day 14, all horses were treated with omeprazole (GASTROGARD® paste, Merial Limited, Duluth, Ga.; 4 mg/kg, orally q24 h), then omeprazole was discontinued for the remainder of the study. All the horses remained stall-confined. From Day 28 to Day 35, all the horses underwent feed-deprivation, where they were muzzled and deprived of feed for 24 hours and then fed for 24 hours for a total of 96 hours to induce ulcers.
During the feed-deprivation days, the horses were fed 10% of their normal sweet feed, and the treated horses received the Supplement composition of Example 1 above (SMARTPAK® Equine, Plymouth, Mass.). From Day 35 to Day 42, all the horses returned to their normal diet to allow for recovery. The timelines of the events occurring during the period of the 42-day study were depicted in FIG. 1.
(§1) Gastroscopic examinations were performed on all the horses on Day 0, 14, 28, 35 and 42 and nonglandular gastric ulcer number (NGN) and severity (NGS) scores were assigned by the PI (FMA) who was masked to treatment (FIG. 2) (MacAllister et al. 1997). During gastroscopy, gastric juice was aspirated and pH measured.

[2] = Gastric juice pH aspirated during gastroscopy, 42-day crossover study; assay type: in vivo, horse; conditions: by Day 14, omeprazole 4 mg/kg orally q24 h
Experimental: as §1
Gastric juice pH values can be determined as follows: gastric juice of a subject animal is aspirated through the biopsy channel of an endoscope and pH is measured at specified time intervals, particularly 1 hour before and then 1 hour after administration of a therapeutic agent or Supplement composition as disclosed herein. Gastric juice pH values can be compared between the times.

[3] = tested on: equine ulcers; conditions: background; cited from earlier work
[4] = omeprazole paste 4 mg/kg orally q24 h Day 1-14

For `COc1ccc2nc([S+]([O-])Cc3ncc(C)c(OC)c3C)[nH]c2c1` (stereo not drawn) [omeprazole], the “horses with healed gastric ulcers in each study group” value ([1]; omeprazole 4 mg/kg orally q24 h, 6/8 horses) was 75%, the NGN score [1, 4] was “significantly decreased” and the NGS score [1, 4] was “significantly decreased”. For the same compound, the “gastric juice pH” value [2] was “increased significantly”, the “gastric juice pH value in horses” value [3] was “increased” and the treating equine ulcers [3] was “effective”.
